Data published in patent publication US7943128B2, “Anti-microbial compositions comprising a cationic peptide and a glycylglycine endopeptidase” (priority 2006, dated 2011).
Positions of bridges follow the written chain, without caps; N, C: chain ends. No end group written: not given here.

Columns and labels:
[1] = test system: Staphylococcus aureus MRSA252 and Staphylococcus aureus MSSA476; assay: Impregnated dried paper disks on TSA plates, zones of inhibition; assay type: cell-based; details: none at lower amounts
Procedure: Sterile Whatman paper disks were impregnated with ranalexin (0.5, 1, 2, 5, 10 or 20 μg), with lysostaphin (0.1, 0.2, 0.5, 1, 2 or 5 μg), a combination of 1 μg lysostaphin and ranalexin (0.5, 1, 2, 5, 10 or 20 μg), or a combination of 10 μg ranalexin and lysostaphin ([…], 0.5, 1, 2 or 5 μg). The paper disks were allowed to dry overnight and then stored at −20° C. until required.
Cultures of Staphylococcus aureus MRSA252 and Staphylococcus aureus MSSA476 were grown to mid-log phase (OD600 0.6-0.9) and diluted to 0.6 if necessary. 150 μl of the culture was then spread onto TSA (Tryptone Soya Agar; Oxoid, Basingstoke, UK) plates and allowed to dry. An impregnated paper disk prepared as described above was placed centrally on the agar plates. Plates were incubated for 20 hours at 37° C. before visual assessment of the zones of inhibition (see FIG. 8) which were visible as clear areas around the disks.

[2] = test system: Staphylococcus aureus MRSA252; assay: Microtitre plate growth inhibition in TSB, 48 hours, turbidity; assay type: cell-based; details: for concentration needed for inhibition, compound alone: MRSA252, 48 hours, in the absence of the other compound
Procedure: (§1) Staphylococcus aureus strains MSSA476 (left) and MRSA252 (right) were cultivated in TSB (Tryptone Soya Broth; Oxoid Basingstoke, UK) to mid-exponential phase. Cultures were then diluted in fresh medium to a starting optical density of 600 nm of 0.001 (approximately 1.0×10^6 cells/ml). Growth of 100 μl volume cultures was measured in 96-well culture plates using TSB as control for 37° C. for 48 hours without shaking in the presence of 0 μg ranalexin/ml medium to 50 μg/ml, increasing stepwise by 5 μg/ml. 8 samples were cultivated for each concentration of ranalexin and to each such sample a different concentration of lysostaphin was added from 0 μg/ml to 1.05 μg/ml in steps of 0.15 μg/ml. The antibacterial activity was measured by reduced turbidity measured by optical density by scanning on an Image Scanner (GE Healthcare UK Ltd) using Image Master Labscan v.3 software. The concentration of ranalexin is indicated above the respective column, each well of a column having the same ranalexin concentration. The wells of each row contain lysostaphin at a final concentration of 0 μg lysostaphin per ml medium to 1.05 μg/ml (as indicated on left), increasing stepwise by 0.15 μg/ml. For S. aureus MSSA476 cultivated in the absence of lysostaphin, ranalexin provides an inhibitory effect at concentrations above 30 μg/ml medium (typically 35 to 40 μg/ml). […] The combination of ranalexin and lysostaphin reduces the necessary amount of each of the compounds by providing a synergistic antimicrobial effect.
(§2) Staphylococcus aureus strains MSSA476 (left) and MRSA252 (right) were cultivated in TSB medium as described in Example 1, except for the narrower concentration ranges of ranalexin and lysostaphin. Ranalexin is provided at concentrations of 0 μg/ml, 0.5 μg/ml and 1 μg/ml to 10 μg/ml, increasing stepwise by 1 μg/ml medium, and lysostaphin concentrations of 0 μg/ml to 0.2 μg/ml, with intermediate concentrations of 0.01 μg/ml, 0.025 μg/ml, 0.05 μg/ml, 0.075 μg/ml, 0.1 μg/ml and 0.15 μg/ml as indicated in FIG. 2.

MRSA252 = assay: Bactericidal assay, survivors after 30 minute exposure in TSB broth; assay type: cell-based, Staphylococcus aureus
Procedure: MRSA252 in TSB broth was exposed for 30 mins to either: increasing concentrations (0, 1, 2, 4, 6, 8 and 10 μg/ml) of ranalexin alone (filled squares); increasing concentrations (0.0, 0.01, 0.02, 0.04, 0.06, 0.08, 0.1 μg/ml) of lysostaphin alone (filled circles); or a combination of 8 μg/ml ranalexin with increasing concentrations (0.0, 0.01, 0.02, 0.04, 0.06, 0.08, 0.1 μg/ml) of lysostaphin. Total cell numbers, or survivors, after a 30 minute exposure to each of the above conditions were determined by serial dilution and plating on TSB agar. Survivors were determined after 24 hours incubation of the TSB plates at 37° C. and expressed as the log of colony forming units per ml of broth. The arrows on FIG. 7 indicate that the numbers of survivors were less than the minimum detectable by this method.

[3] = test system: Staphylococcus aureus strains MSSA476 and MRSA252; assay: Microtitre plate growth inhibition with dermaseptin s3(1-16) or magainin 2 and lysostaphin (Examples 3, 4); assay type: cell-based; details: either strain, up to 50 μg ml^−1
[4] = test system: Staphylococcus aureus MSSA476; assay: Microtitre plate growth inhibition in TSB, 48 hours, turbidity; assay type: cell-based
Procedure: as §1, §2

| Substance | zone of inhibition, agent alone ([1]; disk with 20 μg ranalexin) | concentration needed for inhibition, compound alone [2] | effect on viability (MRSA252; ranalexin alone up to 10 μg ml^−1, 30 minutes) | inhibitory effect of the peptide alone [3] | zone of inhibition, agent alone ([1]; disk with 5 μg lysostaphin) | concentration providing an inhibitory effect, compound alone ([4]; MSSA476, 48 hours, in the absence of the other compound) | MIC ([4]; MSSA476, lysostaphin alone) | MIC ([2]; MRSA252, lysostaphin alone) | reduction in numbers (MRSA252; 0.06 μg ml^−1 lysostaphin, 30 minutes) | effect on viable cell numbers (MRSA252; lysostaphin alone, 0.01 to 0.1 μg ml, 30 minutes) |
| --- | --- | --- | --- | --- | --- | --- | --- | --- | --- | --- |
| ranalexin: 20 amino acid bullfrog peptide FLGGLIKIVPAMICAVTKKC (SEQ ID NO 1) with a single intramolecular disulphide bond (FLGGLIKIVPAMICAVTKKC; disulfide 14-20 (inferred); listed as Rana catesbeiana) | some minimal inhibition | above 40 μg/ml | no detectable effect on viability |  |  |  |  |  |  |  |
| Magainin 2 |  |  |  | little inhibitory effect |  |  |  |  |  |  |
| lysostaphin: 27 kDa zinc-dependent metallopeptidase (glycylglycine endopeptidase) secreted by Staphylococcus simulans and S. staphylolyticus |  | above 0.45 μg/ml |  |  | some minimal inhibition | above 0.75 μg/ml | approximately 0.75 μg/ml | approximately 0.45 μgml | 0.5 log | minor decrease in viable cell numbers |
